Source: patent US10183914B2 (BAYER CROPSCIENCE AKTIENGESELLSCHAFT, priority 2014, dated 2019)

Tests used:
[1] = logp (HCOOH), physicochemical characterization
Alopecurus myosuroides [2] = test: Pre-emergence herbicidal effect; type: in vivo; settings: 3 weeks
How it was run: (§1)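 Percent herbicidal effect or crop damage, judged visually 3 weeks after surface treatment of soil-covered seeds. Treatment used WP or EC formulations diluted in water, 600 to 800 L/ha, plus 0.2% wetting agent.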

Stellaria media = test: Pre-emergence herbicidal effect; type: in vivo; settings: 3 weeks
How it was run: as §1

Amaranthus retroflexus = test: Pre-emergence herbicidal effect; type: in vivo; settings: 3 weeks
How it was run: as §1

Veronica persica = test: Pre-emergence herbicidal effect; type: in vivo; settings: 3 weeks
How it was run: as §1

Cyperus esculentus = test: Pre-emergence herbicidal effect; type: in vivo; settings: 3 weeks
How it was run: as §1

Ipomoea purpurea [3] = test: Pre-emergence herbicidal effect; type: in vivo; settings: 320 g/ha, 3 weeks
How it was run: as §1

Setaria viridis [4] = test: Pre-emergence herbicidal effect; type: in vivo; settings: 3 weeks
How it was run: as §1

Matricaria inodora = test: Pre-emergence herbicidal effect; type: in vivo; settings: 3 weeks
How it was run: as §1

Echinochloa crus-galli [5] = test: Pre-emergence herbicidal effect; type: in vivo; settings: 3 weeks
How it was run: as §1

Viola tricolor = test: Pre-emergence herbicidal effect; type: in vivo; settings: 3 weeks
How it was run: as §1

Polygonum convolvulus = test: Pre-emergence herbicidal effect; type: in vivo; settings: 3 weeks
How it was run: as §1

Avena fatua = test: Pre-emergence herbicidal effect; type: in vivo; settings: 3 weeks
How it was run: as §1

[6] = system: Triticum aestivum (spring); test: Post-emergence herbicidal effect and crop plant compatibility; type: in vivo; settings: visual scoring after about 3 weeks
How it was run: (§2)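 Visual scoring about 3 weeks after treatment rated damage against untreated plants, from 0% (like control) to 100% (dead). Treatment was a post-emergence foliar spray of WP/EC formulations in 600–800 L/ha water with 0.2% wetting agent. Plants were sprayed at the one-leaf stage, 2–3 weeks after sowing in sandy loam.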

Zea mays [7] = test: as above; type: in vivo; settings: 80 g/ha, visual scoring after about 3 weeks
How it was run: as §2

Oryza sativa = test: as above; type: in vivo; settings: visual scoring after about 3 weeks
How it was run: as §2

Lolium multiflorum [8] = test: Pre-emergence herbicidal effect; type: in vivo; settings: 320 g/ha, 3 weeks
How it was run: as §1

Alopecurus myosuroides [9] = test: Post-emergence herbicidal effect; type: in vivo; settings: 320 g/ha, visual scoring after about 3 weeks
How it was run: as §2

Ipomoea purpurea [10] = test: Post-emergence herbicidal effect; type: in vivo; settings: 320 g/ha (dose by row order of upper half), scoring after about 3 weeks
How it was run: as §2

Setaria viridis [11] = test: Post-emergence herbicidal effect; type: in vivo; settings: 320 g/ha (dose by row order of upper half), scoring after about 3 weeks
How it was run: as §2

Echinochloa crus-galli [12] = test: Post-emergence herbicidal effect; type: in vivo; settings: visual scoring after about 3 weeks
How it was run: as §2

[13] = system: Triticum aestivum (spring); test: Pre-emergence herbicidal effect and crop plant compatibility; type: in vivo; settings: 3 weeks
How it was run: as §1

Zea mays [14] = test: as above; type: in vivo; settings: 80 g/ha, 3 weeks
How it was run: as §1

Lolium multiflorum [15] = test: Post-emergence herbicidal effect; type: in vivo; settings: 320 g/ha, visual scoring after about 3 weeks
How it was run: as §2

## CC(=O)c1cnc(N[C@@H]2CCOc3ccccc32)nc1 [1.4]
[1]
  logp (HCOOH): oily; logp (HCOOH): 2.03; 1H-NMR (CDCL3, 400 MHZ, δ in ppm): 2.15 (m, 1H, 1H
Alopecurus myosuroides [2]; 80 g/ha
  ALOMY herbicidal activity in percent: 100%
Alopecurus myosuroides [2]; 320 g/ha
  ALOMY herbicidal activity in percent: 100%
Stellaria media; 80 g/ha
  STEME herbicidal activity in percent: 90%
Stellaria media; 320 g/ha
  STEME herbicidal activity in percent: 100%
Amaranthus retroflexus; 80 g/ha
  AMARE herbicidal activity in percent: 100%
Amaranthus retroflexus; 320 g/ha
  AMARE herbicidal activity in percent: 100%
Veronica persica; 80 g/ha
  VERPE herbicidal activity in percent: 100%
Veronica persica; 320 g/ha
  VERPE herbicidal activity in percent: 100%
Cyperus esculentus; 80 g/ha
  CYPES herbicidal activity in percent: 80%
Cyperus esculentus; 320 g/ha
  CYPES herbicidal activity in percent: 100%
Ipomoea purpurea [3]
  PHBPU herbicidal activity in percent: 100%
Setaria viridis [4]; 320 g/ha
  SETVI herbicidal activity in percent: 90%
Matricaria inodora; 80 g/ha
  MATIN herbicidal activity in percent: 100%
Matricaria inodora; 320 g/ha
  MATIN herbicidal activity in percent: 100%
Echinochloa crus-galli [5]; 320 g/ha
  ECHCG herbicidal activity in percent: 90%
Viola tricolor; 80 g/ha
  VIOTR herbicidal activity in percent: 100%
Viola tricolor; 320 g/ha
  VIOTR herbicidal activity in percent: 100%
Polygonum convolvulus; 80 g/ha
  POLCO herbicidal activity in percent: 100%
Polygonum convolvulus; 320 g/ha
  POLCO herbicidal activity in percent: 100%
Avena fatua; 80 g/ha
  AVEFA herbicidal activity in percent: 100%
Avena fatua; 320 g/ha
  AVEFA herbicidal activity in percent: 100%

## O=C1CCCc2nc(N[C@@H]3CCCc4c(F)cccc43)ncc21 [2.13]
[6]; 80 g/ha
  post-emergence efficacy TRZAS: 10%
[6]; 320 g/ha
  post-emergence efficacy TRZAS: 20%
Zea mays [7]
  post-emergence efficacy ZEAMX: 10%
Oryza sativa; 80 g/ha
  post-emergence efficacy ORYSA: 0%
Oryza sativa; 320 g/ha
  post-emergence efficacy ORYSA: 0%
Alopecurus myosuroides [2]; 320 g/ha
  ALOMY herbicidal activity in percent: 100%
Stellaria media; 80 g/ha
  STEME herbicidal activity in percent: 100%
Stellaria media; 320 g/ha
  STEME herbicidal activity in percent: 100%
Amaranthus retroflexus; 80 g/ha
  AMARE herbicidal activity in percent: 100%
Amaranthus retroflexus; 320 g/ha
  AMARE herbicidal activity in percent: 100%
Veronica persica; 80 g/ha
  VERPE herbicidal activity in percent: 100%
Veronica persica; 320 g/ha
  VERPE herbicidal activity in percent: 100%
Cyperus esculentus; 80 g/ha
  CYPES herbicidal activity in percent: 100%
Cyperus esculentus; 320 g/ha
  CYPES herbicidal activity in percent: 100%
Setaria viridis [4]; 80 g/ha
  SETVI herbicidal activity in percent: 100%
Matricaria inodora; 80 g/ha
  MATIN herbicidal activity in percent: 100%
Matricaria inodora; 320 g/ha
  MATIN herbicidal activity in percent: 100%
Echinochloa crus-galli [5]; 80 g/ha
  ECHCG herbicidal activity in percent: 100%
Echinochloa crus-galli [5]; 320 g/ha
  ECHCG herbicidal activity in percent: 100%
Lolium multiflorum [8]
  LOLMU herbicidal activity in percent: 100%
Viola tricolor; 80 g/ha
  VIOTR herbicidal activity in percent: 100%
Viola tricolor; 320 g/ha
  VIOTR herbicidal activity in percent: 100%
Polygonum convolvulus; 80 g/ha
  POLCO herbicidal activity in percent: 100%
Polygonum convolvulus; 320 g/ha
  POLCO herbicidal activity in percent: 100%
Avena fatua; 320 g/ha
  AVEFA herbicidal activity in percent: 90%
Alopecurus myosuroides [9]
  post-emergence efficacy ALOMY: 90%
Ipomoea purpurea [10]
  post-emergence efficacy PHBPU: 100%
Setaria viridis [11]
  post-emergence efficacy SETVI: 100%
Echinochloa crus-galli [12]; 80 g/ha
  post-emergence efficacy ECHCG: 90%
Echinochloa crus-galli [12]; 320 g/ha
  post-emergence efficacy ECHCG: 100%
[13]; 80 g/ha
  TRZAS herbicidal activity in percent: 0%
[13]; 320 g/ha
  TRZAS herbicidal activity in percent: 10%
Zea mays [14]
  ZEAMX herbicidal activity in percent: 0%

## Cc1ccc2c(c1)[C@H](Nc1ncc3c(n1)COCC3=O)[C@@H](C)C2 [2.97]
[6]; 80 g/ha
  post-emergence efficacy TRZAS: 0%
[6]; 320 g/ha
  post-emergence efficacy TRZAS: 0%
[1]
  logp (HCOOH): oily; logp (HCOOH): 3.26; 1H-NMR (CDCl3, 400 MHZ, δ in ppm): ): 1.25 (t, 3H,
Alopecurus myosuroides [2]; 80 g/ha
  ALOMY herbicidal activity in percent: 100%
Alopecurus myosuroides [2]; 320 g/ha
  ALOMY herbicidal activity in percent: 100%
Stellaria media; 80 g/ha
  STEME herbicidal activity in percent: 100%
Stellaria media; 320 g/ha
  STEME herbicidal activity in percent: 100%
Amaranthus retroflexus; 80 g/ha
  AMARE herbicidal activity in percent: 100%
Amaranthus retroflexus; 320 g/ha
  AMARE herbicidal activity in percent: 100%
Veronica persica; 80 g/ha
  VERPE herbicidal activity in percent: 100%
Veronica persica; 320 g/ha
  VERPE herbicidal activity in percent: 100%
Setaria viridis [4]; 80 g/ha
  SETVI herbicidal activity in percent: 100%
Setaria viridis [4]; 320 g/ha
  SETVI herbicidal activity in percent: 100%
Matricaria inodora; 80 g/ha
  MATIN herbicidal activity in percent: 100%
Matricaria inodora; 320 g/ha
  MATIN herbicidal activity in percent: 100%
Echinochloa crus-galli [5]; 80 g/ha
  ECHCG herbicidal activity in percent: 100%
Echinochloa crus-galli [5]; 320 g/ha
  ECHCG herbicidal activity in percent: 100%
Lolium multiflorum [8]
  LOLMU herbicidal activity in percent: 100%
Viola tricolor; 80 g/ha
  VIOTR herbicidal activity in percent: 100%
Viola tricolor; 320 g/ha
  VIOTR herbicidal activity in percent: 100%
Polygonum convolvulus; 80 g/ha
  POLCO herbicidal activity in percent: 100%
Polygonum convolvulus; 320 g/ha
  POLCO herbicidal activity in percent: 100%
Avena fatua; 320 g/ha
  AVEFA herbicidal activity in percent: 100%
Alopecurus myosuroides [9]
  post-emergence efficacy ALOMY: 100%
Ipomoea purpurea [10]
  post-emergence efficacy PHBPU: 100%
Setaria viridis [11]
  post-emergence efficacy SETVI: 80%
Echinochloa crus-galli [12]; 80 g/ha
  post-emergence efficacy ECHCG: 90%
Echinochloa crus-galli [12]; 320 g/ha
  post-emergence efficacy ECHCG: 100%
Lolium multiflorum [15]
  post-emergence efficacy LOLMU: 100%
[13]; 80 g/ha
  TRZAS herbicidal activity in percent: 10%
[13]; 320 g/ha
  TRZAS herbicidal activity in percent: 20%
Zea mays [14]
  ZEAMX herbicidal activity in percent: 0%
